Active and inactive are the calls of the source. The rule behind the calls is not given here.
Key:
[1] = target: Acetylcholinesterase (Electrophorus electricus) (UniProt O42275); test: Binding affinity to electric eel AChE peripheral anionic site assessed as concentration required for decreasing initial fluorescence intensity of AChE-propidium complex by spectrofluorometric analysis
[2] = target: Acetylcholinesterase (Electrophorus electricus) (UniProt O42275); test: (§1) Displacement of propidium from electric eel AChE peripheral anionic site assessed as decrease in fluorescence intensity by spectrofluorometric analysis
Acetylcholinesterase [3] = target: T1, Acetylcholinesterase (Electrophorus electricus, UniProt O42275); test: as §1
[4] = target: Amyloid-beta precursor protein (Homo sapiens) (UniProt P05067); test: Inhibition of amyloid beta (1 to 42) aggregation (unknown origin) at 10 uM relative to control
Acetylcholinesterase [5] = target: T2, Acetylcholinesterase (Homo sapiens, UniProt P22303); test: Inhibition of human recombinant AChE using acetylthiocholine iodide as substrate preincubated for 20 mins followed by substrate addition by Ellman's method
Acetylcholinesterase [6] = target: T1, Acetylcholinesterase
Description: Inhibition of electric eel AChE using acetylthiocholine iodide as substrate preincubated for 20 mins followed by substrate addition measured after 5 mins by Ellman's method

Cholinesterase [7] = target: T3, Cholinesterase (Homo sapiens, UniProt P06276); test: Inhibition of human serum BChE using butyrylthiocholine iodide as substrate preincubated for 20 mins followed by substrate addition measured after 5 mins by Ellman's method
in vitro = conditions: PAMPA
Description: Permeability of the compound by BBB-PAMPA

Cholinesterase [8] = target: T3, Cholinesterase; test: Inhibition of human serum BChE using butyrylthiocholine iodide as substrate at 30 uM preincubated for 20 mins followed by substrate addition measured after 5 mins by Ellman's method relative to control
Acetylcholinesterase [9] = target: T2, Acetylcholinesterase; test: Inhibition of human recombinant AChE using acetylthiocholine iodide as substrate at 25 uM preincubated for 20 mins followed by substrate addition by Ellman's method relative to control
[10] = target: Acetylcholinesterase (Electrophorus electricus) (UniProt O42275); test: Inhibition of electric eel AChE using acetylthiocholine iodide as substrate at 30 uM preincubated for 20 mins followed by substrate addition measured after 5 mins by Ellman's method relative to control
[11] = target: Acetylcholinesterase (Electrophorus electricus) (UniProt O42275); test: Displacement of propidium from electric eel AChE peripheral anionic site assessed as decrease in fluorescence intensity at 1/1 propidium to compound ratio by spectrofluorometric analysis relative to control; conditions: concentration not given here
Acetylcholinesterase [12] = target: T2, Acetylcholinesterase; test: Mixed-type inhibition of human recombinant AChE using acetylthiocholine iodide as substrate by Cornish-Bowden plot analysis
Acetylcholinesterase [13] = target: T2, Acetylcholinesterase; test: Mixed-type inhibition of human recombinant AChE using acetylthiocholine iodide as substrate assessed as enzyme-substrate-inhibitor complex by Lineweaver-Burk plot analysis
Acetylcholinesterase [14] = target: T2, Acetylcholinesterase; test: Mixed-type inhibition of human recombinant AChE using acetylthiocholine iodide as substrate assessed as enzyme-inhibitor complex by Lineweaver-Burk plot analysis
Acetylcholinesterase [15] = target: T2, Acetylcholinesterase; test: Ratio of tacrine IC50 to compound IC50 for human recombinant AChE
Acetylcholinesterase [16] = target: T2, Acetylcholinesterase; test: Ratio of propidium IC50 to compound IC50 for human recombinant AChE

Chain of Acetylcholinesterase (Electrophorus electricus) (O42275 24-633 limits assumed): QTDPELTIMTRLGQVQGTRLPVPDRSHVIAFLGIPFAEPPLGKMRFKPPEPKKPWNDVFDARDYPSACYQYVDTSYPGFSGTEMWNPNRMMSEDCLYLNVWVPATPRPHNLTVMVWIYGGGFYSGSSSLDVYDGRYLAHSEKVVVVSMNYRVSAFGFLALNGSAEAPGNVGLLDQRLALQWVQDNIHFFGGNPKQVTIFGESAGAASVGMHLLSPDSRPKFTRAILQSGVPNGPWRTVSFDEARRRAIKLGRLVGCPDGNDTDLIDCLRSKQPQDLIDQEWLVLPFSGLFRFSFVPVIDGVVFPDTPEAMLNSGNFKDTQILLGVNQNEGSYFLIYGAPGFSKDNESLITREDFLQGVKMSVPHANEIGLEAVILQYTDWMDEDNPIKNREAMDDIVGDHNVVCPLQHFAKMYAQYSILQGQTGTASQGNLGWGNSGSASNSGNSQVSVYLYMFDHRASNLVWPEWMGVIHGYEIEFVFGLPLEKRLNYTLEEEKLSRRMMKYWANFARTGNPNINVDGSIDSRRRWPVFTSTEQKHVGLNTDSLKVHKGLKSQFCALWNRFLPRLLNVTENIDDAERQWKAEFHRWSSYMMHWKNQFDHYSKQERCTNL
T2 sequence (P22303 whole entry): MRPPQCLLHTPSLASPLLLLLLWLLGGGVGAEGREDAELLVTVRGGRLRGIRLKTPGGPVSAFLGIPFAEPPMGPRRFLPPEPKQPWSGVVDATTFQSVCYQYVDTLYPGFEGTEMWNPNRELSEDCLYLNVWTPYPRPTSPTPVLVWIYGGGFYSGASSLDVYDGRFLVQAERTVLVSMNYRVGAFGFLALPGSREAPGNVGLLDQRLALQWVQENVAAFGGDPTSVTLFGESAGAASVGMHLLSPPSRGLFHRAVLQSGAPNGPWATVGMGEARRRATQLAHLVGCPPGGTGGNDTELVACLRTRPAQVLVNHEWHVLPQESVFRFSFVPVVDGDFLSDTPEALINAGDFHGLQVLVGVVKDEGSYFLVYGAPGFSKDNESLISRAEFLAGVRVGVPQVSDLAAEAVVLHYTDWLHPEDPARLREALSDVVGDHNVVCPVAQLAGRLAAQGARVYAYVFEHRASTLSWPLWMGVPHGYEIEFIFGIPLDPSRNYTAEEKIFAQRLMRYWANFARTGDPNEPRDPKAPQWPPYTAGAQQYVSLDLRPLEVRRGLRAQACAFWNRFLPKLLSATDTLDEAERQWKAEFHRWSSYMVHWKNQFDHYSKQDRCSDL
T3 sequence (P06276 whole entry): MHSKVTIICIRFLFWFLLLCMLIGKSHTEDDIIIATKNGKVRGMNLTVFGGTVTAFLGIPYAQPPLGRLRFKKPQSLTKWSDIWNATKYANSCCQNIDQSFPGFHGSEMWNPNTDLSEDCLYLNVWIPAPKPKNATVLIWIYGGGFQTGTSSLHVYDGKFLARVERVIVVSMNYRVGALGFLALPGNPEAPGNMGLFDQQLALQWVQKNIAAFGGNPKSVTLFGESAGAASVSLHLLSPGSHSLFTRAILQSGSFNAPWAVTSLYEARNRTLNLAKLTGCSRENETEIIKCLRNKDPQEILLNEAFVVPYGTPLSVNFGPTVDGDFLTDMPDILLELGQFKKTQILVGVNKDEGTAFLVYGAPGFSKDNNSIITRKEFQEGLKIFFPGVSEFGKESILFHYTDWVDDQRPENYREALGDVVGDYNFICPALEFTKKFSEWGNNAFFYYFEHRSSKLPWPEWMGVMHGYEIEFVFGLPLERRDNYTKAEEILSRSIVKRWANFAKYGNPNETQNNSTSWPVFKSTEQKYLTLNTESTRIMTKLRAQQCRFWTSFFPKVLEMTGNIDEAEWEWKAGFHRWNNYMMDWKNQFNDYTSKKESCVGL
T1 sequence (O42275 whole entry): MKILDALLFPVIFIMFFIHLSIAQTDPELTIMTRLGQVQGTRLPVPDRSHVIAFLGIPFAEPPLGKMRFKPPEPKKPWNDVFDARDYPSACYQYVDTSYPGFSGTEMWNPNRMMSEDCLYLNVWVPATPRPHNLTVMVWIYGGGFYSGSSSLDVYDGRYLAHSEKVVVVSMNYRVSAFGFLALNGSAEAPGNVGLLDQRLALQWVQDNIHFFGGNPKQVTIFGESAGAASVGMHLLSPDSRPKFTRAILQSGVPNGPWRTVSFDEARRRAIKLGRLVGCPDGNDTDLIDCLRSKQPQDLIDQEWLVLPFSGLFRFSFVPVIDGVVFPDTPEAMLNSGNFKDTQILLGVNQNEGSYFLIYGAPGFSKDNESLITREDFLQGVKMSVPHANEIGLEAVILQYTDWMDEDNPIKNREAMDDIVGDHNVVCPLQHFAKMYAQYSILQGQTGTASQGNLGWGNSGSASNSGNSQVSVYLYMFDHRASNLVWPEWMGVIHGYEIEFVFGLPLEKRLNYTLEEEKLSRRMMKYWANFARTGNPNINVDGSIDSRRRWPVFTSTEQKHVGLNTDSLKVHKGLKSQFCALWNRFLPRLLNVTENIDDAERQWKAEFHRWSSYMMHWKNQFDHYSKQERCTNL
Chain of Amyloid-beta precursor protein (Homo sapiens) (P05067 whole entry): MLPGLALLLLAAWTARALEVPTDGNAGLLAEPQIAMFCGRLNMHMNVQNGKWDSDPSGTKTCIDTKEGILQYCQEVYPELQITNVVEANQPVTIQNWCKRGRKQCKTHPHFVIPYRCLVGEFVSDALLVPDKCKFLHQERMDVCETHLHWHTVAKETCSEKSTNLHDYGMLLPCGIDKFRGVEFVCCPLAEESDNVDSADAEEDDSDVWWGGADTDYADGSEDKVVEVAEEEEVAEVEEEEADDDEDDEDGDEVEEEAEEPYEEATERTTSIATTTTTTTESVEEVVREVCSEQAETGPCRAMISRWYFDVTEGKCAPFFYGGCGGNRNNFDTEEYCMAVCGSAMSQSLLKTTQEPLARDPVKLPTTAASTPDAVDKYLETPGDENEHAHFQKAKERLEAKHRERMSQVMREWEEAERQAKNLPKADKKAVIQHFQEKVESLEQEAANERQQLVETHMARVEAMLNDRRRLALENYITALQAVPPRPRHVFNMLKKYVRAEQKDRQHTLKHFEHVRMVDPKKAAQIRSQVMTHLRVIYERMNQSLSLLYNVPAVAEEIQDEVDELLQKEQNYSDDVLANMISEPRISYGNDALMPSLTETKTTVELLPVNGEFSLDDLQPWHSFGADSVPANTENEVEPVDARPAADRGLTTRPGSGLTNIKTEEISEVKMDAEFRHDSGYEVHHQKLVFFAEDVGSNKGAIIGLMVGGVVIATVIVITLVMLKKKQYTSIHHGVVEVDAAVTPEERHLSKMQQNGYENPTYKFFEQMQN

SMILES | inhibition [4] [%] | IC50 (Acetylcholinesterase [5]) [nM] | IC50 (Acetylcholinesterase [6]) [nM] | Papp (in vitro) [×10⁻⁶ cm/s] | inhibition (Cholinesterase [8]) [%] | inhibition (Acetylcholinesterase [9]) [%] | other results
CCNCc1ccc2nc(-c3ccc(Cl)cc3)c3c(c2c1)N(Cc1ccccc1)CCC3 | < 16 | 942 | 147 | – | – | – | Activity [1]: 33 µM; inhibition [2]: Dose-dependent effect; Kd (Acetylcholinesterase [3]): 3200 nM
CCNCc1ccc2nc(-c3cccnc3)c3c(c2c1)NCCC3 | < 16 | 15800 | 2150 | 2.4 | – | – | IC50 (Cholinesterase [7]): 2590 nM
CCNCc1ccc2nc(-c3ccc(Cl)cc3)c3c(c2c1)NCCC3 | < 16 | 556 | 532 | 5.6 | – | – | Activity [1]: 23 µM; inhibition [2]: Dose-dependent effect; Kd (Acetylcholinesterase [3]): 2180 nM; IC50 (Cholinesterase [7]): 1370 nM
CCn1cc(C(=O)O)c(=O)c2cc(F)c(N3CCNC(C)C3)c(F)c21 (stereo not drawn) [LOMEFLOXACIN] | – | – | – | 0.75 | – | – | –
CCOC(=O)c1ccc2nc(-c3ccc(Cl)cc3)c3c(c2c1)N(Cc1ccc(OC)cc1)CCC3 | < 16 | > 25000 | > 30000 | 26 | 12.4 | 10.2 | inhibition [10]: 33.7%
CCOC(=O)c1ccc2nc(-c3ccc(C(=O)OC)cc3)c3c(c2c1)N(Cc1ccccc1)CCC3 | < 16 | > 25000 | 6620 | 9.5 | 6.61 | 15.7 | –
CCOC(=O)c1ccc2nc(-c3ccc(Cl)cc3)c3c(c2c1)NCCC3 | < 16 | > 25000 | 281 | 9.7 | 20.3 | 17.8 | –
CCOC(=O)c1ccc2nc(-c3cccnc3)c3c(c2c1)NCCC3 | < 16 | 22800 | 148 | 14.6 | 27.5 | – | –
CCOC(=O)c1ccc2nc(-c3cccnc3)c3c(c2c1)N(Cc1ccccc1)C(=O)CC3 | < 16 | 13000 | > 30000 | 12.2 | 4.42 | – | inhibition [10]: 43.7%
CCOC(=O)c1ccc2nc(-c3ccc(Cl)cc3)c3c(c2c1)N(Cc1ccccc1)CCC3 | < 16 | > 25000 | 6330 | 8.1 | 8.68 | 10 | –
CCNC(=O)c1ccc2nc(-c3ccc(Cl)cc3)c3c(c2c1)N(Cc1ccccc1)CCC3 | < 16 | 801 | 5480 | 7.7 | 25.3 | – | inhibition [11]: 5%; inhibition (Acetylcholinesterase [12]): Active; Ki (Acetylcholinesterase [13]): 2340 nM; Ki (Acetylcholinesterase [14]): 785 nM
CCOC(=O)c1ccc2nc(-c3ccc(Cl)cc3)c3c(c2c1)N(Cc1ccccc1)C(=O)CC3 | < 16 | 4150 | 5210 | 13.3 | 8.41 | – | –
CCOC(=O)c1ccc2nc(-c3ccc(C(=O)OC)cc3)c3c(c2c1)N(Cc1ccccc1)C(=O)CC3 | < 16 | > 25000 | 13600 | 16.8 | 5.54 | 13.8 | –
CCNC(=O)c1ccc2nc(-c3ccc(Cl)cc3)c3c(c2c1)NCCC3 | < 16 | 65 | 46 | 22.9 | – | – | Activity [1]: 13 µM; inhibition [2]: Dose-dependent effect; Kd (Acetylcholinesterase [3]): 1760 nM; inhibition (Acetylcholinesterase [12]): Active; Ki (Acetylcholinesterase [13]): 73 nM; Ki (Acetylcholinesterase [14]): 65 nM; Ratio IC50 (Acetylcholinesterase [15]): 6; Ratio IC50 (Acetylcholinesterase [16]): 500; IC50 (Cholinesterase [7]): 920 nM
CCOC(=O)c1ccc2nc(-c3cccnc3)c3c(c2c1)N(Cc1ccccc1)CCC3 | < 16 | 1060 | 1970 | – | – | – | –
CN1C(C(=O)Nc2ccccn2)=C(O)c2ccccc2S1(=O)=O [PIROXICAM] | – | – | – | 1.71 | – | – | –

— ChEMBL document CHEMBL3120164, “1,2,3,4-Tetrahydrobenzo[h][1,6]naphthyridines as a new family of potent peripheral-to-midgorge-site inhibitors of acetylcholinesterase: synthesis, pharmacological evaluation and mechanistic studies” (Eur J Med Chem, 2014)
